Experimental data taken from US20240247080A1, “GLP1/GIP/NPY2 RECEPTOR TRIPLE AGONISTS” (Boehringer Ingelheim International GmbH, priority 2022, published 2024).
pEC50: −log10 of the molar value. Read-outs that look alike come from different tables or passages of the source. Starred links: 1 amine or outer side, 2 acyl side, 3 side chain; linkers in the order of their positions; H or OH if unused. Positions of bridges follow the written chain, without caps; N, C: chain ends. Non-standard residues stand in square brackets, D forms with d. Groups on a side chain read outwards from the residue. Chains are numbered I, II in the order given. No end group written: not given here. *: point of attachment. C20 diacid = O=C(O)CCCCCCCCCCCCCCCCCCC(=O)*; C18 diacid = O=C(O)CCCCCCCCCCCCCCCCC(=O)*; γGlu = O=C(O)[C@H](CCC(=O)[*:2])N[*:1]; εLys = N[C@@H](CCCCN[*:1])C(=O)[*:2]; AEEA = NCCOCCOCC(=O)O; Aib = CC(C)(N)C(=O)O

Legend:
Assay type in all cases: cell-based
Conditions in all cases: CreLuc reporter gene assay
hGIPR = biological target: T1, hGIPR (Homo sapiens, UniProt P48546); assay: hGIPR CreLuc reporter gene assay in 0.5% and 100% plasma
T1 construct: expressed in transfected cells; host or cells: CHO cells carrying a CRE-luciferase reporter gene
T1 sequence (P48546 22-466): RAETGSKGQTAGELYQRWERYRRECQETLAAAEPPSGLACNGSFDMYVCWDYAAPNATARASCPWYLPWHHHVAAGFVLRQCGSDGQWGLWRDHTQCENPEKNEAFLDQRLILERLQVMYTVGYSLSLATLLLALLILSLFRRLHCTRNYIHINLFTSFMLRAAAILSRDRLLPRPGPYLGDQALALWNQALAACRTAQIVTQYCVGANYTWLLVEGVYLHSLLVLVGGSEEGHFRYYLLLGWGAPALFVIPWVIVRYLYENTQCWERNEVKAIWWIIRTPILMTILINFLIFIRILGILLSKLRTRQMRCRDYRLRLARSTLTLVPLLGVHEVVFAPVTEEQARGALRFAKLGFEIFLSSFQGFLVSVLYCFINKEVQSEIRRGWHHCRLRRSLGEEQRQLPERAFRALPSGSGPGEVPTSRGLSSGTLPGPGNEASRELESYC
Method in brief: (§1)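 HEK cells (GLP-1R, NPY2R) or CHO cells (GIPR) carrying a CRE-luciferase reporter, incubated 4 h at 37 °C with peptides in HBSS/20 mM HEPES pH 7.4 plus 0.5% human plasma, or in 100% plasma. Luminescence read; EC50 from 8-point variable-slope sigmoid fits.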

hNPY2R = biological target: T2, hNPY2R (Homo sapiens, UniProt P49146); assay: hNPY2R CreLuc reporter gene assay in 0.5% and 100% plasma
T2 construct: expressed in transfected cells; host or cells: HEK-293 cells carrying a CRE-luciferase reporter gene
T2 sequence (P49146 1-381): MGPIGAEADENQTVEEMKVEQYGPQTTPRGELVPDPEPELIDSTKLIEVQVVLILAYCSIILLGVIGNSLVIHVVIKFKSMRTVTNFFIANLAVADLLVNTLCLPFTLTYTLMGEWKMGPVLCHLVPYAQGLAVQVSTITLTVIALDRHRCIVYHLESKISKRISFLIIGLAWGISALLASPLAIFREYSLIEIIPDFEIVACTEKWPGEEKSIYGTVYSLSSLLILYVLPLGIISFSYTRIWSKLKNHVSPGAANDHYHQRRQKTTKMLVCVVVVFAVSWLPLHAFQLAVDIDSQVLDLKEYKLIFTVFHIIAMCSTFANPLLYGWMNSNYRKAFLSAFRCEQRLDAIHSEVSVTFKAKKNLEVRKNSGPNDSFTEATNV
Text: Example 1: hGLPR/hGIPR/hNPY2R CreLuc Assay in 0.5% and 100% Plasma
CHO and HEK-293 recombinant cell lines express a luciferase reporter gene under control of the cAMP responsive element (CRE). As a second recombinant protein the GLP-1 and NPY2 receptors were expressed in the reporter gene HEK cells, and the GIP receptor was expressed in the reporter gene CHO cells, respectively. Stimulation of these recombinant cells with an agonist leads to an increase of intracellular cAMP levels. In the presence of cAMP, the transcription factor CRE binding protein (CREB) binds to the CRE and to the CREB binding protein (CBP), which leads to transcription of the luciferase reporter gene. Peptides upon serial-dilution in 100% DMSO were transferred into 384-well assay plates with 5 μl pre-dispensed assay buffer (1×HBSS, 20 mM HEPES, pH7.4 supplemented with 0.5% human plasma) using acoustic dispensing on a Labcyte ECHO. Cryo-preserved transgenic reporter gene cells were thawed in assay buffer. 20 μl (10.000 cells/well) were added to the plate with the peptides and incubated for 4 hours at 37° C. in a humidified incubator. Following incubation, assay plates are equilibrated to room temperature, followed by addition of 25 μl of Bright-GIo™ Luciferase reagent, incubation at room temperature for 10 minutes and analysis of luminescence (Envision Reader). Concentration response evaluation of compounds was performed with 8 concentrations of peptides (covering four decades). EC50 values were calculated by non-linear regression using sigmoid concentration-response with variable slope. The same assays were run in the presence of 100% plasma with no additional buffer constituents.

hGLP1R = biological target: T3, hGLP1R (Homo sapiens, UniProt P43220); assay: hGLP1R CreLuc reporter gene assay in 0.5% and 100% plasma
T3 construct: expressed in transfected cells; host or cells: HEK-293 cells carrying a CRE-luciferase reporter gene
Method in brief: as §1

[1] = 0.5% human plasma, read-out: hGIPR 0.5% hP
[2] = 100% human plasma, read-out: hNPY2R 100% hP
[3] = 0.5% human plasma, read-out: hGLP1R 0.5% hP
[4] = 100% human plasma, read-out: hGLP1R 100% hP
[5] = 100% human plasma, read-out: hGIPR 100% hP
[6] = 0.5% human plasma, read-out: hNPY2R 0.5% hP

T3 sequence (P43220 24-463): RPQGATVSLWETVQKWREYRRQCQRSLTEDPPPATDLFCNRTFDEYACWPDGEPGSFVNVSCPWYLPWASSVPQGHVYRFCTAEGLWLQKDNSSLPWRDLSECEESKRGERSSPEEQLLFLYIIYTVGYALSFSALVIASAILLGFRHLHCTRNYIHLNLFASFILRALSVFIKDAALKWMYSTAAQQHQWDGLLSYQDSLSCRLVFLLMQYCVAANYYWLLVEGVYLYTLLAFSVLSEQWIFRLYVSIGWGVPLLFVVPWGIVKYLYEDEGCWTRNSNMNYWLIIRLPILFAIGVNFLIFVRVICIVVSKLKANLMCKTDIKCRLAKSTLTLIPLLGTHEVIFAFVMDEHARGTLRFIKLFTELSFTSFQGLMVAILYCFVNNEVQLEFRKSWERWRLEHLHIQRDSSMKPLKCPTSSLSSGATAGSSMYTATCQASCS

pEC50 (hGIPR; [1]) | pEC50 (hNPY2R; [2]) | pEC50 (hGLP1R; [3]) | pEC50 (hGLP1R; [4]) | pEC50 (hGIPR; [5]) | pEC50 (hNPY2R; [6]) | Substance
9.92 | 7.27 | 10.05 | 8.38 | – | – | H-Y[Aib]EGTFTSDYSI[Aib]LEKQAQ[Aib]AFVQWLIK([AEEA-AEEA-γGlu-γGlu-γGlu-γGlu-γGlu-C18 diacid])GGPESGASLRHYYNWLTRQRY-NH2 [Compound 55, Y-Aib-E-G-T-F-T-S-D-Y-S-I-Aib-L-E-K-Q-A-Q-Aib-A-F-V-Q-W-L-I-K(1,3)-GGPESGASLRHYYNWLTRQRY-NH2.C18DA-gGlu-gGlu-glu-gGlu-gGlu-OEG-OEG(1,2)]
9.48 | 7.64 | 10.10 | 8.77 | 9.46 | – | H-Y[Aib]EGTFTSDYSI[Aib]LEKQAQ[Aib]AFVQWLIK([εLys-γGlu-γGlu-γGlu-γGlu-γGlu-C18 diacid])GGPESGASLRHYYNWLTRQRY-NH2 [Compound 60, Y-Aib-E-G-T-F-T-S-D-Y-S-I-Aib-L-E-K-Q-A-Q-Aib-A-F-V-Q-W-L-I-K(1,3)-GGPESGASLRHYYNWLTRQRY-NH2.C18DA-gGlu-gGlu-gGlu-gGlu-gGlu-eLys(1,2)]
9.19 | – | 9.54 | – | 8.55 | 7.74 | H-Y[Aib]EGTFTSDYSI[Aib]LEKQAQ[Aib]AFVEWLIK([γGlu-γGlu-γGlu-γGlu-γGlu-γGlu-C20 diacid])GGPSEGASLRHYYNWLTRQRY-NH2 [Compound 305, Y-Aib-E-G-T-F-T-S-D-Y-S-I-Aib-L-E-K-Q-A-Q-Aib-A-F-V-E-W-L-I-K(1,3)-GGPSEGASLRHYYNWLTRQRY-NH2.C20DA-gGlu-gGlu-gGlu-gGlu-gGlu-gGlu(1,2)]
9.40 | 7.50 | 10.10 | – | 9.15 | 7.96 | Y[Aib]EGTFTSDYSI[Aib]LEKQAQ[Aib]AFVEWLIK([AEEA-AEEA-γGlu-γGlu-γGlu-C18 diacid])GGPSEGASLRHYYNWLTRQRY-NH2 [Compound 299, Y-Aib-E-G-T-F-T-S-D-Y-S-I-Aib-L-E-K-Q-A-Q-Aib-A-F-V-E-W-L-I-K(1,3)-GGPSEGASLRHYYNWLTRQRY-NH2.C18DA-gGlu-gGlu-gGlu-OEG-OEG(1,2)]
9.37 | 6.80 | 9.51 | – | – | 7.37 | H-Y[Aib]EGTFTSDYSI[Aib]LEKQAQ[Aib]AFVEWLIK([εLys-γGlu-γGlu-γGlu-γGlu-γGlu-γGlu-C20 diacid])GGPSSGALLRHYYNWLTRQRY-NH2 [Compound 197, Y-Aib-E-G-T-F-T-S-D-Y-S-I-Aib-L-E-K-Q-A-Q-Aib-A-F-V-E-W-L-I-K(1,3)-GGPSSGALLRHYYNWLTRQRY-NH2.C20DA-gGlu-gGlu-gGlu-gGlu-gGlu-gGlu-eLys(1,2)]
10.10 | – | 9.77 | 8.77 | 9.12 | 7.90 | H-Y[Aib]EGTFTSDYSI[Aib]LEKQAQ[Aib]AFVEWLIK([εLys-γGlu-γGlu-γGlu-γGlu-γGlu-γGlu-C20 diacid])GGPSEPASLRHYYNWLTRQRY-NH2 [Compound 233, Y-Aib-E-G-T-F-T-S-D-Y-S-I-Aib-L-E-K-Q-A-Q-Aib-A-F-V-E-W-L-I-K(1,3)-GGPSEPASLRHYYNWLTRQRY-NH2.C20DA-gGlu-gGlu-gGlu-gGlu-gGlu-gGlu-eLys(1,2)]
9.85 | – | 9.82 | 8.14 | 8.84 | 7.77 | I: H-Y[Aib]EGTFTSDYSI[Aib]LEKQAQ[Aib]AFVQWLIKGGPEEGASLRHYYNWLTRQRY-NH2 / II: {C18 diacid}-EEEEE[εLys] (amide I:28-II:C) [Compound 155, Y-Aib-E-G-T-F-T-S-D-Y-S-I-Aib-L-E-K-Q-A-Q-Aib-A-F-V-Q-W-L-I-K(1,3)-GGPEEGASLRHYYNWLTRQRY-NH2.C18DA-E-E-E-E-E-eLys(1,2)]
9.59 | – | 9.68 | 7.98 | 8.74 | 7.89 | H-Y[Aib]EGTFTSDYSI[Aib]LEKQAQ[Aib]EFVQWLIK([γGlu-γGlu-γGlu-γGlu-C18 diacid])GGPSEGASLRHYYNWLTRQRY-NH2 [Compound 202, Y-Aib-E-G-T-F-T-S-D-Y-S-I-Aib-L-E-K-Q-A-Q-Aib-E-F-V-Q-W-L-I-K(1,3)-GGPSEGASLRHYYNWLTRQRY-NH2.C18DA-gGlu-gGlu-gGlu-gGlu(1,2)]
9.46 | 6.25 | 10.00 | 8.86 | 8.81 | < 7.00 | H-Y[Aib]EGTFTSDYSI[Aib]LEKQAQ[Aib]AFVEWLIK([εLys-γGlu-γGlu-γGlu-γGlu-γGlu-γGlu-C20 diacid])GGPSSGIELRHFLNHLTRQRY-NH2 [Compound 2, Y-Aib-E-G-T-F-T-S-D-Y-S-I-Aib-L-E-K-Q-A-Q-Aib-A-F-V-E-W-L-I-K(1,3)-GGPSSGIELRHFLNHLTRQRY-NH2.C20DA-gGlu-gGlu-gGlu-gGlu-gGlu-gGlu-eLys(1,2)]
9.13 | – | – | 7.76 | – | 7.73 | H-Y[Aib]EGTFTSDYSI[Aib]LEKQAQ[Aib]AFVEWLIK([εLys-γGlu-γGlu-γGlu-γGlu-γGlu-γGlu-C20 diacid])GGPSEYVSLRHYYNWLTRQRY-NH2 [Compound 217, Y-Aib-E-G-T-F-T-S-D-Y-S-I-Aib-L-E-K-Q-A-Q-Aib-A-F-V-E-W-L-I-K(1,3)-GGPSEYVSLRHYYNWLTRQRY-NH2.C20DA-gGlu-gGlu-gGlu-gGlu-gGlu-gGlu-eLys(1,2)]
9.89 | – | 9.96 | – | 8.90 | 7.92 | H-Y[Aib]EGTFTSDYSI[Aib]LEKQAQ[Aib]AFVEWLIK([AEEA-AEEA-Glu-Glu-Glu-C18 diacid])GGPSEGASLRHYYNWLTRQRY-NH2 [Compound 298, Y-Aib-E-G-T-F-T-S-D-Y-S-I-Aib-L-E-K-Q-A-Q-Aib-A-F-V-E-W-L-I-K(1,3)-GGPSEGASLRHYYNWLTRQRY-NH2.C18DA-E-E-E-OEG-OEG(1,2)]
9.46 | – | 9.96 | – | 8.53 | 7.74 | H-Y[Aib]EGTFTSDYSI[Aib]LERQAQ[Aib]AFVEWLIK([εLys-γGlu-γGlu-γGlu-γGlu-γGlu-γGlu-C20 diacid])GGPSSGASLRHYYNWLTRQRY-NH2 [Compound 131, Y-Aib-E-G-T-F-T-S-D-Y-S-I-Aib-L-E-R-Q-A-Q-Aib-A-F-V-E-W-L-I-K(1,3)-GGPSSGASLRHYYNWLTRQRY-NH2.C20DA-gGlu-gGlu-gGlu-gGlu-gGlu-gGlu-eLys(1,2)]
